According to publication PMC12040169 (PLOS Biology, 2025):

Assay: in vitro
Details: human, hela cells, % viability

Row | SMILES | viability at 28.5 h, 10 µM [%] | viability at 28.5 h, 10 µM (bulk resorufin, single well) [%]
1 | COc1ccc(NC(=O)N2CC[C@H]3CC(=O)N(CCN4CCNC4=O)CC[C@H]3C2)cc1 [CBK288797] | 86.8 | –
2 | COc1ccc(-c2nc(NC(=O)CSc3n[nH]c(N)n3)ns2)cc1 [CBK267236] | 81.8 | –
3 | CCCC/C=C/c1cnc(N)c(Nc2ccc3[nH]ccc3c2)n1 [CBK063811] | 95.7 | –
4 | CN(C)CCNCc1cccc(OCc2ccccc2)c1 [CBK278216C] | 89.7 | –
5 | Cc1cc(S(=O)(=O)NCc2cc(F)c(F)c(F)c2)c(C)cc1Cl [CBK043813] | 85 | –
6 | O=C(Nc1cc(Cl)cc(Cl)c1)c1ccc([N+](=O)[O-])s1 [CBK066840] | 95.2 | –
7 | Nc1nc(OCCn2cccc2)cnc1-c1ccsc1 [CBK145162] | 92.1 | –
8 | FCCOc1cncc(Cl)n1 [CBK113553] | 115 | –
9 | FC(F)(F)c1cccc(Sc2cccc3ccccc23)n1 [CBK091449] | 94.8 | –
10 | Cc1ccc2cc(COc3cccnc3[N+](=O)[O-])c(Cl)nc2c1C [CBK297113] | 103 | –
11 | Cc1cc(CSc2cccs2)no1 [CBK002635] | 91.8 | –
12 | O=C(c1ccc2c(c1)C(=O)N(N1C(=O)c3ccccc3C1=O)C2=O)c1ccc2c(c1)C(=O)N(N1C(=O)c3ccccc3C1=O)C2=O [CBK261182] | 96.4 | –
13 | CS(=O)(=O)N1CCN(c2ccc(NC(=O)COc3ccc4ccccc4c3)cc2)CC1 [CBK266450] | 96.8 | –
14 | Cc1nc2cc(Cl)ccc2n1CCO [CBK110738] | 100 | –
15 | CC1CC(=O)N(c2cccc(C(=O)Nc3cccc(-c4cccc(F)c4)c3)c2)C1=O (stereo not shown) [CBK285734] | 103 | –
16 | Cc1ncsc1CCOc1cc(C(F)(F)F)ccn1 [CBK115785] | 100 | –
17 | O=C(Nc1ccccc1C(=O)NCCN1CCOCC1)c1cccs1 [CBK270077] | 94.4 | –
18 | COc1ccc(/C=C/C(=O)c2ccc(OC)cc2OC)c(OC)c1 [CBK261666] | 87.3 | –
19 | Clc1ccc(COc2cc(N3CCCN(Cc4ccccc4-c4ccccc4)CC3)ncn2)cc1Cl [CBK083781T] | 98.4 | –
20 | O=C(CO/N=C\c1cccc([N+](=O)[O-])c1)Nc1ccccc1C(=O)O [CBK262051] | 91.7 | –
21 | CCNC(=S)N[C@H]1CC[C@@]2(Cc3ccccc3Cl)CCN(C)[C@H]2C1 [CBK003708] | 92 | –
22 | CCCCn1c(S)nc2c(-c3ccccc3)c[nH]c2c1=O [CBK288505] | 96.2 | –

Row | SMILES | viability at 28.5 h, 10 µM [%] | viability at 28.5 h, 10 µM (bulk resorufin, single well) [%]
23 | COc1ccc(CCN(Cc2ccc(Cl)c(Cl)c2)C(=O)NCCCSC)cc1OC [CBK158758] | 91.1 | –
24 | Cc1cc(C(=O)N2CCC(Cc3ccccc3-c3ccccc3)(C(=O)N(C)C)CC2)cs1 [CBK285676] | 116 | –
25 | O=c1c2c(-c3ccccc3)ccnc2[nH]n1-c1ccccc1 [CBK287858] | 97 | –
26 | NC(=NOC(=O)c1cccc(Br)c1)c1ccccc1 [CBK261703] | 92.7 | –
27 | COc1ccc(-c2ccccc2NC(=O)c2cccc(CN3CCCC3=O)c2)cc1 [CBK285865] | 91.4 | –
28 | Cc1ccc(C)c(OCC(=O)N(Cc2nc(-c3ccccc3)no2)C2CCCCC2)c1 [CBK269067] | 89.4 | –
29 | COCC(=O)NCc1cc2n(n1)CCN(Cc1cccs1)C2 [CBK307085] | 106 | –
30 | Cc1ccc(Cn2nc(C(=O)Nc3cc(C)nn3C)c3ccccc32)cc1 [CBK047842] | – | 77.9
31 | O=C(OCCc1cccnc1)N1CCSCC1 [CBK200160] | 103 | –
32 | COC(=O)Cn1c(CN2CCN(c3ccccc3F)CC2)nc2c1c(=O)n(C)c(=O)n2C [CBK269444] | 93.1 | –
33 | CCCC(=O)Nc1ccc(-c2csc(NC(=O)C3CCCO3)n2)cc1 (stereo not shown) [CBK305854] | 77.8 | –
34 | CN(C)CCNC(=O)c1ccc(-c2ccccc2S(=O)(=O)Nc2ccc(C(=O)O)c(O)c2)cc1 [CBK174050] | 106 | –
35 | CC(NC(=O)Cn1cnc2ccccc21)c1ccccn1 (stereo not shown) [CBK281884] | 96.7 | –
36 | Cc1nc(C)c(C(=O)c2coc3ccc(O)cc23)o1 [CBK027631] | 94.1 | –
37 | Cc1ccc(CN(CC2CCOC2)C2CC(C)(C)NC(C)(C)C2)o1 (stereo not shown) [CBK283174] | 92.6 | –
38 | O=c1cc(C(F)F)c2cn(C3CCCC3)nc2[nH]1 [CBK288016] | 91.8 | –
39 | COc1cc(CNC(C)c2ccccc2)ccc1OCC(N)=O (stereo not shown) [CBK269982C] | 92.8 | –
40 | Fc1cccc(-c2nc3c(s2)CN(C2CCOCC2)CC3)c1 [CBK281647] | 87 | –
41 | CCN(CCc1ccccn1)S(=O)(=O)c1ccc(OC(F)(F)F)cc1 [CBK044968] | 92.4 | –
42 | CC(C)Oc1ccccc1-c1nnc(SCC(=O)O)[nH]1 [CBK262702] | 81.7 | –
43 | COc1ncc(-c2cncc(N[C@H](C)c3ccccc3)n2)c(OC)n1 [CBK065267] | 92.4 | –
44 | CCCc1cc(=O)[nH]c(SCc2noc(-c3snnc3C)n2)n1 [CBK006474] | 87.4 | –

Row | SMILES | viability at 28.5 h, 10 µM [%] | viability at 28.5 h, 10 µM (bulk resorufin, single well) [%]
45 | COc1ccc(-n2c(=O)c3ccccc3n(CC(=O)NC3CCCC3)c2=O)cc1 [CBK287574] | 92.2 | –
46 | COc1ccc([C@@]23CC=C(N(Cc4ccccc4)C(=O)Nc4ccc(F)c(F)c4)C[C@@H]2N(C)CC3)cc1OC [CBK050179] | 94.9 | –
47 | O=CN1CCc2c([nH]c3cc(F)ccc23)C12CCN(CCc1ccc3c(c1)OCO3)CC2 [CBK039614] | 86.5 | –
48 | O=c1cnnc(Nc2cccc(Cl)c2Cl)[nH]1 [CBK287897] | 93 | –
49 | O=C1N[C@]2(CCc3ccccc31)CN(Cc1ccsc1)C[C@H]2CO [CBK284793] | 90.7 | –
50 | CN(C)c1nc(NCc2ccccc2)nc(SCC(=O)Nc2ccccc2)n1 [CBK268810] | 88.9 | –
51 | CCn1c(C2CC(=O)N(c3ccc(C)cc3C)C2)nc2ccccc21 (stereo not shown) [CBK287505] | 83.1 | –
52 | CC(C)(C)NC(=O)c1ccc(-n2ccnc2)c(-n2cccc2)c1 [CBK284811] | 103 | –
53 | CCc1ccc2c(c1)C(CCNC(=O)c1cscc1C(F)(F)F)C(=O)N2 (stereo not shown) [CBK304728] | 82.5 | –
54 | Cc1ccc(S(=O)(=O)N2CCOCC2)cc1C(=O)Oc1cccc2cccnc12 [CBK269726] | 98 | –
55 | CCNC(=O)Nc1ccc(-c2ccncc2)c2ccccc12 [CBK083720] | 88.8 | –
56 | CN(C)C(=O)CO[C@@H]1CO[C@H]2[C@@H]1OC[C@@H]2Nc1nccc(-c2cccc(F)c2)n1 [CBK289533] | 87.9 | –
57 | Cc1cc(C(=O)Nc2cc(-c3nc4ncccc4o3)ccc2Cl)ccc1[N+](=O)[O-] [CBK268700] | 95.1 | –
58 | COC(=O)CCSc1nc(C)nc2c1c(=O)n(C)c(=O)n2CC(C)C [CBK305891] | 82.7 | –
59 | CCOC(=O)CN1C(=O)S/C(=C/c2ccc(OCc3ccc(Br)cc3)cc2)C1=O [CBK264686] | 99.1 | –
60 | C[N+]1(c2ccccc2)CCC(N)=N1 (stereo not shown) [CBK262213I] | 91.8 | –
61 | CN(C)CCN1CCN(c2nc(-c3cccc4ccccc34)cnc2N)CC1 [CBK063479] | 94.7 | –
62 | COc1nc(-c2ccc(N(C)C)nc2)nn1C [CBK307317] | 100 | –
63 | COc1ccc(C2C(C(=O)c3ccc(Cl)cc3)=C(O)C(=O)N2CCN(C)C)cc1OC (stereo not shown) [CBK264660] | 103 | –
64 | CCN(CC)CCNC(=O)c1cc(O)nc2ccccc12 [CBK269261] | 99.6 | –
65 | O=C(NCC1Cc2ccccc2O1)c1cccc(NC(=O)c2ccco2)c1 (stereo not shown) [CBK298302] | 83.3 | –
66 | CN(c1ncc(Br)cc1C(=O)Nc1ccc(C(F)(F)F)cc1)S(C)(=O)=O [CBK076542] | 93.3 | –

Row | SMILES | viability at 28.5 h, 10 µM [%] | viability at 28.5 h, 10 µM (bulk resorufin, single well) [%]
67 | O=C(Nc1ccc(N2CCCCC2)c2ccncc12)c1cccc(-n2cnnn2)c1 [CBK297754] | 85.8 | –
68 | O=C(CC[C@@H]1CNC(=O)[C@@H]2C[C@H](NC(=O)C3CC3)CN12)Nc1ccccc1 [CBK289006] | 113 | –
69 | Cc1csc2c(N3CCCC3CC(=O)c3cnn(C)c3)ncnc12 (stereo not shown) [CBK304429] | 81.8 | –
70 | CN(CC(=O)Nc1cccc(Cl)c1)S(=O)(=O)c1ccc2ccccc2c1 [CBK266746] | 105 | –
71 | COc1cc(CN(C)Cc2cccc3ccccc23)c([N+](=O)[O-])cc1OC [CBK261850] | 89.3 | –
72 | O=C(N/N=C/c1ccc([N+](=O)[O-])cc1)C(=O)Nc1cccc(Cl)c1 [CBK261821] | 95.8 | –
73 | CN1CC(=O)N(c2ccc(Cl)cc2Cl)C1=O [CBK116319] | 93 | –
74 | CC(=O)c1cc2c(cc1NC(=O)CSc1nc3ccccc3[nH]1)OCO2 [CBK266110] | 69.8 | –
75 | CC(Sc1nc(-c2ccccc2)nc2ccccc12)C(=O)Nc1ccccc1C(F)(F)F (stereo not shown) [CBK265795] | 103 | –
76 | CN(C)c1ccc(-n2ccn(S(=O)(=O)c3ccc4ccccc4c3)c2=O)cc1 [CBK106607] | 93.5 | –
77 | NC(=O)c1c(NC(=O)COc2ccc3ccccc3c2)sc2c1CCCCC2 [CBK265380] | 112 | –
78 | Cc1ccccc1N1CC(C(=O)Nc2cccnc2)CC1=O (stereo not shown) [CBK288138] | 88.3 | –
79 | O=C(O)C1(NS(=O)(=O)c2ccc(F)c(Cl)c2)CCCCC1 [CBK267276] | 98.2 | –
80 | Cc1nc2ccc(C(=O)N3CCN(c4ccccc4)CC3)cn2c1N(C)C(=O)c1cccs1 [CBK146544] | 99 | –
81 | Cc1cccc(CN2CCC(NC(=O)c3cn(C(C)(C)C)nn3)CC2)c1 [CBK305927] | 92 | –
82 | Cc1cnc(CNC(=O)/C=C/c2ccc(C(C)C)cc2)cn1 [CBK149625] | 99.4 | –
83 | NCCSC1CC(=O)N(Cc2ccc(F)cc2)C1=O (stereo not shown) [CBK269025C] | 101 | –
84 | O=C(c1cccc(F)c1)N1CCC(c2nnc3n2CCCCC3)CC1 [CBK284627] | 103 | –
85 | Cc1ccc2[nH]c(C3CCCCN3C(=O)c3cscn3)nc2c1 (stereo not shown) [CBK283999] | 96.6 | –
86 | CC1CCCC(C)N1C(=O)Cn1ncc2cccn2c1=O (stereo not shown) [CBK283680] | 101 | –
87 | C=CCN1C(=O)CC2(C1=O)C(=O)N(Cc1csc(-c3ccccc3)n1)c1ccc(Cl)cc12 (stereo not shown) [CBK075445] | 99.6 | –
88 | CN(C)c1cccc(Nc2ccc(-c3ccco3)cn2)c1 [CBK036885] | 96.8 | –
